Experiment [1] has as its target T1, wt human TYK2, catalytic site (Homo sapiens, UniProt P29597).
T1 construct: wt human TYK2, catalytic site; purchased SignalChem
T1 sequence (P29597 897-1176 limits assumed): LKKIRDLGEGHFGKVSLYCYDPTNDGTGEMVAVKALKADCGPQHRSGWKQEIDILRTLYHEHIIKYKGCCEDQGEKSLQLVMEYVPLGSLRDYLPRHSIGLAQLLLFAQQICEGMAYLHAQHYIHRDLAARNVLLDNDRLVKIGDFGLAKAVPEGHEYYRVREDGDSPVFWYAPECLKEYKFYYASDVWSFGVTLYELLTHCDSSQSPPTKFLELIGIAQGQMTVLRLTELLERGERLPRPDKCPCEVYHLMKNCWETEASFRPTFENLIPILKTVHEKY
The experiment is described as follows: HTRF KinEASE assay, TYK2. It is filed as biochemical. As to conditions: 1 μM ATP; read-out: IC50, Activity Toward TYK2. In short, it runs like this: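 HTRF KinEASE-TK readout with 1 μM biotinylated TK substrate in 1× kinase buffer, ≥30 min at room temperature, then antibody/streptavidin-XL665 detection for 60 min. TYK2 at 2 nM with 1 μM ATP; JAK2 at 1 nM with 100 μM ATP. Analysis uses emission ratios.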

The target of experiment [2] is T2, wt human LRRK2, catalytic site (Homo sapiens, UniProt Q5S007).
T2 construct: 5 nM wt human LRRK2, catalytic site; purchased ThermoFisher
T2 sequence (Q5S007 970-2527 limits assumed): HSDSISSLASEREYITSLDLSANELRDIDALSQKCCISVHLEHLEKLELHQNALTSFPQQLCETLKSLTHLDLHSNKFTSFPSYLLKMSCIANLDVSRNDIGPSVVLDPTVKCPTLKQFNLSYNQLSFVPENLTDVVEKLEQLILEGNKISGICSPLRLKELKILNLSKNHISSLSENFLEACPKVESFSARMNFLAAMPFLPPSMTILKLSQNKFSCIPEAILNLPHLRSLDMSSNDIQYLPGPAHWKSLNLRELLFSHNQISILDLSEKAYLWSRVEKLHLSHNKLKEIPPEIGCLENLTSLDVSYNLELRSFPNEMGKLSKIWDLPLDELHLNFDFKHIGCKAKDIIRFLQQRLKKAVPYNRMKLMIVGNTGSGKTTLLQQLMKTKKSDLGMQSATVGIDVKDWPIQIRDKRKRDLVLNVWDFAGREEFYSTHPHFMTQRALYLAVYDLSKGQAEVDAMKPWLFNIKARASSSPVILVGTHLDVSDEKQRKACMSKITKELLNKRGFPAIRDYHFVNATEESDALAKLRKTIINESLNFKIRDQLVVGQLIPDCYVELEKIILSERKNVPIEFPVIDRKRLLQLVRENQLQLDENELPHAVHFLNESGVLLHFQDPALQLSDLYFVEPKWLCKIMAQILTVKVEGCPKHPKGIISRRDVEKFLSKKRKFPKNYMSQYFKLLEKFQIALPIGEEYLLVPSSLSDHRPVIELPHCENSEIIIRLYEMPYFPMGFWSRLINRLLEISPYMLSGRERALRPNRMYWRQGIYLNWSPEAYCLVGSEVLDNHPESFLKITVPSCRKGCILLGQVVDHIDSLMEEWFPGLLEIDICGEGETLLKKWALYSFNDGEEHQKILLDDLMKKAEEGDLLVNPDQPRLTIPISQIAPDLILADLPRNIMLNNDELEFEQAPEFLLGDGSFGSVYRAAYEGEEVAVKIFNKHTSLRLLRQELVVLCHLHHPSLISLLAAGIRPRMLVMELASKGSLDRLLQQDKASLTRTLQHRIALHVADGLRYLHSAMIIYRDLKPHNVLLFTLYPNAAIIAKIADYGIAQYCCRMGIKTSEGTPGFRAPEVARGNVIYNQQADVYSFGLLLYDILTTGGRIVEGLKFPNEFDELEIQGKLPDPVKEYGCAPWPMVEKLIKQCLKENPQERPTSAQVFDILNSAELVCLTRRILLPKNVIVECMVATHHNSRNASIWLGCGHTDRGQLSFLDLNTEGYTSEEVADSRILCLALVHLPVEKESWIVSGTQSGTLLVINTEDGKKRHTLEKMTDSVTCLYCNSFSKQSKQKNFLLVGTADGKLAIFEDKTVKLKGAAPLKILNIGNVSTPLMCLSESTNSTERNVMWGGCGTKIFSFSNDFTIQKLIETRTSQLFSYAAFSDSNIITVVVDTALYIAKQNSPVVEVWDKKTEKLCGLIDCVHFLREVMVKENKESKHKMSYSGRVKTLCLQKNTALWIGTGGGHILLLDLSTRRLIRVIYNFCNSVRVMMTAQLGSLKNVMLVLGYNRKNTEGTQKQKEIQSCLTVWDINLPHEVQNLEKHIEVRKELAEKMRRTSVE
The experiment is described as follows: TR-FRET LanthaScreen Eu Kinase Binding Assay, LRRK2 wt. As to conditions: one range stated for wt and G2019, read-out: IC50, Activity Toward LRRK2(Wt). In short, it runs like this:
(§1)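 Tracer-displacement binding: compound mixed with kinase/Eu-antibody and Kinase Tracer 236 in 1× Kinase Buffer A, 1 h at room temperature, then TR-FRET emission ratio read. LRRK2 (wt or G2019S) 5 nM with 2 nM Eu-anti-GST, 10 nM tracer; NUAK1 8 nM with 2 nM Eu-anti-His, 5 nM tracer.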

Experiment [3] addresses T3, G2019S human LRRK2, catalytic site (Homo sapiens, UniProt Q5S007, G2019S).
T3 construct: G2019S human LRRK2, catalytic site; purchased ThermoFisher
The experiment is described as follows: TR-FRET LanthaScreen Eu Kinase Binding Assay, LRRK2 G2019S. As to conditions: LRRK2(G2019); one range stated for wt and G2019; read-out: IC50, Activity Toward LRRK2(G2019). In short, it runs like this:
as §1

Experiment [4] deals with T4, wt human JAK1, catalytic site (Homo sapiens, UniProt P23458).
T4 construct: wt human JAK1, catalytic site; purchased ThermoFisher
T4 sequence (P23458 875-1153 limits assumed): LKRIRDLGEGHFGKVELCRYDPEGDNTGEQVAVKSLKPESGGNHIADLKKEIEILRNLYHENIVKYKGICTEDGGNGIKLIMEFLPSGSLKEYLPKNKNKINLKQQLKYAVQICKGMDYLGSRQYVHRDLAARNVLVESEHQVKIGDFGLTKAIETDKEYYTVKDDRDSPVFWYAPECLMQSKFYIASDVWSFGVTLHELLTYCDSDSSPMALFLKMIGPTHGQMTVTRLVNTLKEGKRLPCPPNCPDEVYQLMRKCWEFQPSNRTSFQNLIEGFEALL
The experiment is described as follows: HTRF KinEASE assay, JAK1. It is filed as biochemical. As to conditions: 2.5 μM ATP; read-out: IC50, Activity Toward JAK1. The method, boiled down:
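Two-step HTRF KinEASE assay: compound, kinase/biotinylated TK substrate and ATP were incubated at least 30 min at room temperature. Antibody plus streptavidin-XL665 was then added and plates were read after 60 min. Inhibition was derived from emission ratios according to the kit protocol.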

T3 sequence (Q5S007 970-2527 G2019S limits assumed): as the sequence (Q5S007 970-2527 limits assumed) above, with G1050S counted along it

On to `N#CC1CN(C(=O)c2ccc(Nc3cn(-c4c(Cl)cccc4Cl)nc3C(N)=O)cc2)C1` [compound 276, 4-((4-(3-cyanoazetidine-1-carbonyl)phenyl)amino)-1-(2,6-dichlorophenyl)-1H-pyrazole-3-carboxamide], for which the concentration for half-maximal inhibition (IC50) was less than 0.01 µM in experiment [1], 0.1 to 1 µM in experiment [2], 0.1 to 1 µM in experiment [3] and 0.01 to 0.1 µM in experiment [4].
Regarding `CCc1nc(C(F)(F)F)nn1-c1ccc(Nc2cn(-c3c(F)cccc3Cl)nc2C(N)=O)cc1` [compound 283, 1-(2-chloro-6-fluorophenyl)-4-((4-(5-ethyl-3-(trifluoromethyl)-1H-1,2,4-triazol-1-yl)phenyl)amino)-1H-pyrazole-3-carboxamide], the IC50 in experiment [1] was less than 0.01 µM; in experiment [2], 0.1 to 1 µM; in experiment [3] it was 0.1 to 1 µM; in experiment [4], 0.1 to 1 µM.
On to `COCc1nc(C(F)(F)F)nn1-c1ccc(Nc2cn(-c3c(F)cccc3F)nc2C(N)=O)cc1` [compound 299, 1-(2,6-difluorophenyl)-4-((4-(5-(methoxymethyl)-3-(trifluoromethyl)-1H-1,2,4-triazol-1-yl)phenyl)amino)-1H-pyrazole-3-carboxamide], for which the IC50 in experiment [1] is less than 0.01 µM; in experiment [2], 0.1 to 1 µM; in experiment [3], 0.1 to 1 µM; in experiment [4], 0.1 to 1 µM.
On to `CCn1nc(C(F)(F)F)nc1-c1ccc(Nc2cn(-c3c(F)cccc3F)nc2C(N)=O)cc1` [compound 302, 1-(2,6-difluorophenyl)-4-((4-(1-ethyl-3-(trifluoromethyl)-1H-1,2,4-triazol-5-yl)phenyl)amino)-1H-pyrazole-3-carboxamide], for which the IC50 in experiment [1] is less than 0.01 µM; in experiment [2], 0.1 to 1 µM; in experiment [3], 0.1 to 1 µM; in experiment [4], 0.01 to 0.1 µM.
Regarding `CCn1cc(C(F)(F)F)nc1-c1ccc(Nc2cn(-c3c(F)cccc3Cl)nc2C(N)=O)cc1` [compound 303, 1-(2-chloro-6-fluorophenyl)-4-((4-(1-ethyl-4-(trifluoromethyl)-1H-imidazol-2-yl)phenyl)amino)-1H-pyrazole-3-carboxamide], the IC50 lay in the range of 0.01 to 0.1 µM in experiment [1], 0.1 to 1 µM in experiment [2], 0.1 to 1 µM in experiment [3] and 0.01 to 0.1 µM in experiment [4].
As for `CCn1cc(C(F)(F)F)nc1-c1ccc(Nc2cn(-c3c(F)cccc3F)nc2C(N)=O)cc1` [compound 304, 1-(2,6-difluorophenyl)-4-((4-(1-ethyl-4-(trifluoromethyl)-1H-imidazol-2-yl)phenyl)amino)-1H-pyrazole-3-carboxamide], the half-maximal inhibitory concentration (IC50) in experiment [1] is 0.01 to 0.1 µM; in experiment [2], 0.01 to 0.1 µM; in experiment [3], 0.01 to 0.1 µM; in experiment [4], 0.1 to 1 µM.
Take `Cn1cc(C(F)(F)F)nc1-c1ccc(Nc2cn(-c3c(F)cccc3Cl)nc2C(N)=O)cc1` [compound 305, 1-(2-chloro-6-fluorophenyl)-4-((4-(1-methyl-4-(trifluoromethyl)-1H-imidazol-2-yl)phenyl)amino)-1H-pyrazole-3-carboxamide]: the IC50 is less than 0.01 µM in experiment [1], 0.1 to 1 µM in experiment [2], 0.1 to 1 µM in experiment [3] and 0.01 to 0.1 µM in experiment [4].
Consider `CCn1cc(C#N)nc1-c1ccc(Nc2cn(-c3c(Cl)cccc3Cl)nc2C(N)=O)cc1` [compound 310, 4-((4-(4-cyano-1-ethyl-1H-imidazol-2-yl)phenyl)amino)-1-(2,6-dichlorophenyl)-1H-pyrazole-3-carboxamide], for which the IC50 in experiment [1] was 0.01 to 0.1 µM; in experiment [2] it was 0.1 to 1 µM; in experiment [3], 0.1 to 1 µM; in experiment [4], 0.01 to 0.1 µM.
For the compound `NC(=O)c1nn(-c2c(Cl)cccc2Cl)cc1Nc1ccc(C(=O)N2CC[C@@H](F)C2)cc1` [compound 315, (R)-1-(2,6-dichlorophenyl)-4-((4-(3-fluoropyrrolidine-1-carbonyl)phenyl)amino)-1H-pyrazole-3-carboxamide], the IC50 in experiment [1] was less than 0.01 µM; in experiment [2], 0.1 to 1 µM; in experiment [3], 0.1 to 1 µM; in experiment [4], 0.01 to 0.1 µM.
Turning to `NC(=O)c1nn(-c2c(Cl)cccc2Cl)cc1Nc1ccc(C(=O)N2CC[C@H](F)C2)cc1` [compound 316, (S)-1-(2,6-dichlorophenyl)-4-((4-(3-fluoropyrrolidine-1-carbonyl)phenyl)amino)-1H-pyrazole-3-carboxamide], the IC50 in experiment [1] is less than 0.01 µM; in experiment [2], 0.1 to 1 µM; in experiment [3], 0.1 to 1 µM; in experiment [4] it was 0.01 to 0.1 µM.
As for `NC(=O)c1nn(-c2c(Cl)cccc2Cl)cc1Nc1ccc(-c2ccnnc2)cc1` [compound 321, 1-(2,6-dichlorophenyl)-4-((4-(pyridazin-4-yl)phenyl)amino)-1H-pyrazole-3-carboxamide], the IC50 is 0.01 to 0.1 µM in experiment [1], 0.1 to 1 µM in experiment [2], 0.1 to 1 µM in experiment [3] and 0.01 to 0.1 µM in experiment [4].
As to `Cc1ncnn1-c1ccc(Nc2cn(-c3c(Cl)cccc3Cl)nc2C(N)=O)cc1` [compound 326, 1-(2,6-dichlorophenyl)-4-((4-(5-methyl-1H-1,2,4-triazol-1-yl)phenyl)amino)-1H-pyrazole-3-carboxamide], the IC50 in experiment [1] was in the range of 0.01 to 0.1 µM; in experiment [2], 0.1 to 1 µM; in experiment [3], 0.1 to 1 µM; in experiment [4], 0.01 to 0.1 µM.
On to `NC(=O)c1nn(-c2c(Cl)cccc2Cl)cc1Nc1ccc(C(=O)N2CC[C@H](F)C2)nc1` [compound 355, (S)-1-(2,6-dichlorophenyl)-4-((6-(3-fluoropyrrolidine-1-carbonyl)pyridin-3-yl)amino)-1H-pyrazole-3-carboxamide], for which the IC50 in experiment [1] was in the range of 0.01 to 0.1 µM; in experiment [2], 0.1 to 1 µM; in experiment [3], 0.1 to 1 µM; in experiment [4], 0.1 to 1 µM.
On to `Cc1cccc2nnc(-c3ccc(Nc4cn(-c5c(Cl)cccc5Cl)nc4C(N)=O)cc3)n12` [compound 376, 1-(2,6-dichlorophenyl)-4-((4-(5-methyl-[1,2,4]triazolo[4,3-a]pyridin-3-yl)phenyl)amino)-1H-pyrazole-3-carboxamide], for which the IC50 in experiment [1] lay within 0.01 to 0.1 µM; in experiment [2] it was 0.1 to 1 µM; in experiment [3], 0.1 to 1 µM; in experiment [4], 0.01 to 0.1 µM.
On to `NC(=O)c1nn(-c2c(Cl)cccc2Cl)cc1Nc1cnn(-c2ncccc2F)c1` [compound 386, 1-(2,6-dichlorophenyl)-4-((1-(3-fluoropyridin-2-yl)-1H-pyrazol-4-yl)amino)-1H-pyrazole-3-carboxamide], for which the IC50 in experiment [1] was 0.01 to 0.1 µM; in experiment [2], 0.1 to 1 µM; in experiment [3], 0.1 to 1 µM; in experiment [4] it was 0.01 to 0.1 µM.
Regarding `N#Cc1cn(CCO)c(-c2ccc(Nc3cn(-c4c(Cl)cccc4Cl)nc3C(N)=O)cn2)n1` [compound 387, 4-((6-(4-cyano-1-(2-hydroxyethyl)-1H-imidazol-2-yl)pyridin-3-yl)amino)-1-(2,6-dichlorophenyl)-1H-pyrazole-3-carboxamide], the IC50 in experiment [1] fell in the range of 0.01 to 0.1 µM; in experiment [2], 0.1 to 1 µM; in experiment [3], 0.1 to 1 µM; in experiment [4], 0.01 to 0.1 µM.
For `Cc1cccc2nnc(-c3ccc(Nc4cn(-c5c(Cl)cccc5Cl)nc4C(N)=O)cn3)n12` [compound 388, 1-(2,6-dichlorophenyl)-4-((6-(5-methyl-[1,2,4]triazolo[4,3-a]pyridin-3-yl)pyridin-3-yl)amino)-1H-pyrazole-3-carboxamide], the IC50 in experiment [1] was in the range of 0.01 to 0.1 µM; in experiment [2], 0.1 to 1 µM; in experiment [3] it was 0.1 to 1 µM; in experiment [4], 0.01 to 0.1 µM.
With `Cc1cnnn1-c1ccc(Nc2cn(-c3c(Cl)cccc3Cl)nc2C(N)=O)cc1` [compound 391, 1-(2,6-dichlorophenyl)-4-((4-(5-methyl-1H-1,2,3-triazol-1-yl)phenyl)amino)-1H-pyrazole-3-carboxamide], the IC50 lay within 0.01 to 0.1 µM in experiment [1], 0.1 to 1 µM in experiment [2], 0.1 to 1 µM in experiment [3] and 0.01 to 0.1 µM in experiment [4].
Consider `Cc1ccncc1-c1ccc(Nc2cn(-c3c(Cl)cccc3Cl)nc2C(N)=O)cn1` [compound 394, 1-(2,6-dichlorophenyl)-4-((4′-methyl-[2,3′-bipyridin]-5-yl)amino)-1H-pyrazole-3-carboxamide], for which the IC50 in experiment [1], in experiment [2], in experiment [3] and in experiment [4] was 0.1 to 1 µM in each case.
On to `Cc1cccnc1-c1ccc(Nc2cn(-c3c(Cl)cccc3Cl)nc2C(N)=O)cn1` [compound 395, 1-(2,6-dichlorophenyl)-4-((3′-methyl-[2,2′-bipyridin]-5-yl)amino)-1H-pyrazole-3-carboxamide], for which the 50% inhibitory concentration (IC50) in experiment [1], in experiment [2], in experiment [3] and in experiment [4] was 0.1 to 1 µM each time.

The record behind these values is patent US20230373985A1 (Origenis Gmbh, priority 2020, published 2023).
